Source: US6551774B1, “Diagnostic methods for conditions associated with elevated cellular levels of telomerase activity” (Board of Regents, The University of Texas System, priority 1992, dated 2003)

Legend:
[1] = test system: lymphoma cell line JY 616; assay: Growth of cultured JY lymphoma cells with potential telomerase inhibitors; assay type: cell-based, human; settings: 50 μM; normal rate until week 3
Method: (§1) The effect of the agents on telomerase activity in intact cells was then studied utilizing the lymphoma cell line JY 616 which were maintained in RPMI 1640 with […] Hepes, 10% FCS, and penicillin/streptomycin (Gibco). The cells were cultured in 6-well plates (Falcon) with 5.0 ML of medium per well in duplicate. Cells were passaged every 7-10 days which corresponded to 5-7 mean population doublings (MPD), and seeded at 3×10^4 cells per well into fresh medium containing analog or control. Cell viability was monitored prior to harvest utilizing trypan blue stain (Gibco) during counting with a hemocytometer. The average ratio of stained: unstained cells (dead:alive) was […]. The intactness of the DNA was measured on a parallel gel by observing its mobility in a gel prior to digestion by a restriction enzyme.

[2] = test system: Tetrahymena cells; assay: Telomere length in vegetatively grown Tetrahymena by Southern blot; assay type: cell-based, Tetrahymena thermophila
Method: (§2) For analysis of macronuclear DNA from cultures containing the nucleoside analog AZT (Sigma), or controls lacking analog, at various timepoints during vegetative divisions, cells from stationary stock cultures were inoculated into 25 ml thymine-deficient Iso-sensitest broth (‘Isobroth’, Oxoid USA) in 250 ml flasks. Cultures were incubated at 30° C. with shaking (100 rpm) for 48 hours. Cells were counted and plated at 1000 cells/1.5 ml in 24-well plates (Falcon) and grown at 30° C., without shaking, for 48 hours. 5 μl of these log phase cells were used to inoculate 1 ml cultures (Isobroth) containing varied concentrations of nucleoside analog. Thereafter, every 2-4 days cells were transferred, either 5 μl per well, or 1-3 μl using a multi-pronged replicator into fresh 1 ml broth containing AZT. Remaining cells were pelleted and stored at −80° C. until processed for DNA analysis.
(§3) For analysis of macronuclear DNA from vegetative cultures containing the nucleoside analogs Ara-G (Calbiochem), ddG (Calbiochem), or ddI (Calbiochem), or controls lacking analog, stock cultures were grown overnight in 2% PPYS as described. Cells were counted and plated at 100 cells/2 ml in 2% PPYS containing varied amounts of analog, 1% DMSO (Fisher) (as a control for ddG and Ara-G), or 2% PPYS alone. Cells were replica plated into fresh medium every 2-6 days, and remaining cells were pelleted and stored at −80° C. until processed for DNA analysis.
For analysis of macronuclear DNA from vegetative cultures containing d4T (Sigma) or control lacking the analog, stock cultures (SB210 VI) were grown overnight in Isobroth as described. Cells were then counted and duplicate cultures inoculated at 500 cells/5 ml Isobroth in 50 ml conical tubes, and grown at 30° C., shaking 80 rpm. 500-2000 cells were transfered to fresh broth every 2-4 days, and the remainder pelleted and stored at −80° C. until processed for DNA analysis.
Restriction digests, agarose gel electrophoresis, transfer of DNA to Nytran filters (Schleicher and Schuell), and hybridization with ^32P-nick-trapplated or random-primed probes were carried out using standard procedures (Maniatis et.al. 1989). Telomere length was analyzed as described previously for Tetrahymena [Larson 50 Cell, 477, 1987].
Telomere lengths in cells grown in the presence of the different analogs were monitored by Southern blot analysis of DNA samples extracted at a series of time points during the subculturings. The telomeres of cells grown vegetatively in 1 and 5 mM AZT in 2% PPYS medium were reproducibly shortened by up to an average of 170 base pairs compared with the control cultures grown in 2% PPYS in the absence of the drug (FIG. 21A and B). This shortening of telomeres occured in a concentration-dependent manner (FIG. 21B), with at least 50% of the maximal shortening effect occurring by 10 μM AZT, the lowest concentration tested.

[3] = test system: lymphoma cell line JY 616; assay: Telomere length of JY lymphoma cells by Southern blot; assay type: cell-based, human; settings: AZT treated cells, week 3
Method: The first lane is DNA from the cells at the start of the experiment, the second is the RPMI control, and the third is cells treated with AZT for the times indicated.
Cells were treated over a 10 week period with either 10 μM ddG in 0.01% DMSO or medium with 0.01% DMSO only.
as §1

[4] = test system: Tetrahymena cells; assay: Growth, morphology and senescence of Tetrahymena mass-transfer cultures with nucleoside analogs; assay type: cell-based, Tetrahymena thermophila
Method: as §2, §3
To test whether such a phenotype could be produced by inhibitors of telomerase in Tetrahymena, duplicate log-phase cultures were grown for prolonged periods in the presence of varying concentrations of analogs. The growth and cell morphology of these cultures were monitored, and DNA was isolated at different times for telomere length analysis. […] From growth rate measurements it was calculated that the cells went through 150 to 250 cell generations in the course of this 50 day period.

In the case of `Cc1cn([C@H]2C[C@H](N=[N+]=[N-])[C@@H](CO)O2)c(=O)[nH]c1=O` [AZT], the cell growth [1] is reported as “ceased proliferating”, the “fraction of the maximal telomere shortening effect” value ([2]; 10 μM, the lowest concentration tested) is reported as “at least 50%” and the “shortening of telomeres compared with control cultures” value ([2]; 1 and 5 mM in 2% PPYS medium) is reported as at most 170 base pairs. For the same compound, the “mean telomere length compared to the control medium” value [3] was “marked decrease in mean telomere length”, the “effect on cell growth and survival” value ([4]; 5 or 10 mM in Isobroth medium) was “strongly inhibited cell growth and killed cells within a day” and the senescence of cultures ([4]; up to 1 mM in Isobroth, 50-day continuous growth, ˜10^3 cells per transfer) was “did not result in senescence”.
